Experimental data published in paper PMC9249726 (Clinical Pharmacokinetics, 2022).
Read-outs that look alike come from different tables or passages of the source.

How the values were obtained:
[1] = cited from earlier work
[2] = Plasma protein binding; type: in vitro ADME, human; details: for fraction unbound: human, plasma, oral, 60 mg, geometric mean (geometric CV)
[3] = test system: activated partial thromboplastin time (aPTT); assay: Pharmacodynamic biomarker aPTT after single-dose milvexian 60 mg; type: in vivo, human; details: for Time at which mean aPTT returned to baseline: post-dose; for Maximal percentage increase from baseline in aPTT: single oral 60 mg
[4] = Safety and tolerability of single oral dose milvexian 60 mg; type: in vivo, human; details: single oral 60 mg, all groups, in words
[5] = milvexian 60 mg; ref previous studies; cited from earlier work
[6] = animal studies; no reference given; cited from earlier work
[7] = test system: cytochrome P450 (CYP)-3A4; details: in words; no reference given; cited from earlier work
[8] = for increase in exposure, AUC(INF) / increase in exposure, Cmax: mild or moderate hepatic impairment compared with normal hepatic function

Question: With `COc1ccc(-n2nc(C(N)=O)c3c2C(=O)N(c2ccc(N4CCCCC4=O)cc2)CC3)cc1` [apixaban] as the molecule, how does the “AUC increase in participants with moderate hepatic impairment” value ([1]; apixaban 5 mg) read?
Answer: 1.09 fold

Question: For `C[C@@H]1CCC[C@H](n2cnc(-c3cc(Cl)ccc3-n3cc(Cl)nn3)cc2=O)c2cc(ccn2)-c2c(cnn2C(F)F)NC1=O` [milvexian], which fraction unbound ([2]; mild hepatic impairment (n = 9)) is on record?
Answer: 0.0852

Question: And the fraction unbound ([2]; moderate hepatic impairment (n = 8))?
Answer: 0.0955

Question: And the fraction unbound ([2]; normal hepatic function (n = 9))?
Answer: 0.0775

Question: What about the Plasma protein binding ([2]; in words) of the same molecule?
Answer: moderate to high

Question: What about the “geometric mean fraction of unbound milvexian” value ([2]; mild hepatic impairment) of the same molecule?
Answer: 8.52%

Question: And the “geometric mean fraction of unbound milvexian” value ([2]; moderate hepatic impairment)?
Answer: 9.55%

Question: What about the “geometric mean fraction of unbound milvexian” value ([2]; normal hepatic function) of the same molecule?
Answer: 7.75%

Question: What about the “Time at which mean aPTT returned to baseline” value (“Time” below) ([3]; mild hepatic impairment) of the same molecule?
Answer: ≤ 48 h

Question: And the “Maximal percentage increase from baseline in aPTT” value ([3]; mild hepatic impairment)?
Answer: approximately 90%

Question: And the “Time” value ([3]; moderate hepatic impairment)?
Answer: approximately 72 h

Question: What about the “Maximal percentage increase from baseline in aPTT” value ([3]; moderate hepatic impairment) of the same molecule?
Answer: approximately 90%

Question: And the “Time” value ([3]; normal hepatic function)?
Answer: ≤ 48 h

Question: And the “increase in aPTT” value ([3]; participants with hepatic impairment (mild or moderate), single dose 60 mg)?
Answer: 90%

Question: And the “bleeding AEs” value [4]?
Answer: no bleeding AEs

Question: And the “deaths, SAEs, discontinuations due to AEs” value [4]?
Answer: no serious adverse events (AEs), bleeding AEs, or discontinuations due to AEs

Question: And the drug-induced liver injury [4]?
Answer: no reports of drug-induced liver injury

Question: What about the “deaths, SAEs, discontinuations due to AEs” value ([4]; listed as Milvexian) of the same molecule?
Answer: no deaths, SAEs, or treatment discontinuations due to AEs

Question: And the “expected variability in pharmacokinetics” value [5]?
Answer: ~ 20%

Question: What about the direct biliary excretion [6] of the same molecule?
Answer: ~ 30 % of the dose

Question: What about the excretion through metabolism [6] of the same molecule?
Answer: 40–50 % of the administered dose

Question: And the metabolising enzymes [7]?
Answer: predominantly metabolized by cytochrome P450 (CYP)-3A4, with minor contributions from CYP3A5

Question: And the “variability in pharmacokinetics observed in this study” value ([8]; milvexian 60 mg, group with normal hepatic function)?
Answer: > 50%

Question: And the “increase in exposure, AUC(INF)” value ([8]; total milvexian)?
Answer: up to 18%

Question: And the “increase in exposure, Cmax” value ([8]; total milvexian)?
Answer: up to 18%

Question: What about the “increase in exposure, AUC(INF)” value ([8]; unbound milvexian) of the same molecule?
Answer: up to 30%

Question: And the “increase in exposure, Cmax” value ([8]; unbound milvexian)?
Answer: up to 40%

Question: Which “AUC increase in participants with moderate hepatic impairment” value ([1]; rivaroxaban 10 mg) does the source give for `O=C(NC[C@H]1CN(c2ccc(N3CCOCC3=O)cc2)C(=O)O1)c1ccc(Cl)s1` [rivaroxaban] here?
Answer: 2.27 fold
